Values after ≈ are worked out from the molar mass of the structure shown.
Tests used:
[1] = system: phosphor-AKT (S473) in Rat1 cells; assay: Rat1-IGF1 assay (IGF-1 induced phospho-AKT immunoblot); type: cell-based, rat; details: Rattus norvegicus
Method: Rat1 cells are plated in 6-well culture plates and serum-starved for 24 hours. Serum-starved cells are treated either with control vehicle or with various concentrations of 17-HWT for 2 hours, stimulated by IGF-1 (100 ng/mL) for 30 minutes. Total cellular lysates are prepared using NuPAGE-LDS sample buffer (Invitrogen), sonicated and then clarified by centrifugation. Equal amounts of proteins are subject to immunoblotting analysis using NuPAGE electrophoresis system and probed with phosphor-AKT (S473), total AKT antibodies (Signaling Technology).

[2] = system: MDA468 (human breast cancer cell); assay: Cell proliferation (MTS) assay, MDA468; type: cell-based; details: Homo sapiens, 72 h, three days treatment
How it was run: (§1)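 Cells plated at about 3000 per well in RPMI-1640/10% FBS were dosed with compound one day later. Viability was read by MTS conversion (absorbance 490 nm, 1–2 h) three days after treatment began. Effect is expressed as percent of vehicle-treated growth on the same plate.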

Human TOR = biological target: T1, Human TOR (Homo sapiens, UniProt P42345); assay: Human TOR (mTOR) kinase assay, DELFIA format; type: biochemical
T1 construct: FLAG
How it was run: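 Purified FLAG-TOR (800 ng/mL) phosphorylates His6-S6K ([…]) with […] ATP in Hepes pH 7.4 buffer containing MnCl2, 2 h at room temperature. Phospho-Thr389 S6K detected by DELFIA using Europium-labelled anti-P(T389)-p70S6K antibody; enzyme inhibition calculated from signal.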

[3] = system: LNCaP (human prostate carcinoma); assay: Cell proliferation (MTS) assay, LNCaP; type: cell-based; details: Homo sapiens, LNCaP, 72 h, three days treatment
How it was run: as §1

[4] = system: DU145 (human prostate carcinoma/lymphocytic leukemia); assay: Cell proliferation (MTS) assay, DU145; type: cell-based; details: Homo sapiens, DU-145, 72 h, three days treatment
How it was run: as §1

[5] = system: MDA435 (human breast adenocarcinoma); assay: Cell proliferation (MTS) assay, MDA435; type: cell-based; details: Homo sapiens, MDA435, 72 h, three days treatment
How it was run: as §1

PI3K = system: T2, PI3K; assay: Fluorescence polarization assay for PI3K; type: biochemical; details: Table 2
T2 construct: PI3K FP IC50
Method: This assay is used to determine the IC50 of compounds of the present invention as it identifies inhibitors of PI3 kinase by measuring inhibition.
The assay is run by placing 5 μL of diluted enzyme per well, then 5 μL of diluted compound (or 9.5 μL enzyme then 0.5 μL compound in DMSO) is added and mixed. Then, 10 μL substrate is added to start the reaction. The samples are incubated 30-60 minutes, then the reaction is stopped by adding 20 μL stop/detector mix.
PI3K is diluted with reaction buffer (e.g., 5 μL or 7.5 μL PI3K into 620 μL reaction buffer), and 5 μL of diluted enzyme is used per well. 5 μL reaction buffer or drug diluted in buffer (e.g., 4 μL/100 so final DMSO is 1% in reaction) is added to each. The samples are mixed by pipetting up and down. Alternatively, the enzyme can be diluted to 1215 μL. In this case 9.8 μL is added per well and 0.2 μL compound is added in DMSO.
To prepare 1 mL of substrate solution, 955 μL reaction buffer, 40 μL PIP2, and 2.5 μL ATP are mixed. 10 μL of substrate is added to each well to start the reaction.
Stop/detector mix is prepared by mixing 4 μL Red detector and 1.6 μL or 2.0 μL GST-GRP with 1 mL Stop buffer, which results in 10 nM probe and 70 nM GST-GRP). 20 μL of the stop/detector mix is added to each well to stop the reaction. The plates are read after 30-90 minutes keeping the red probe solutions dark.
For the zero time point, stop/detector mix is added to the enzyme just before adding substrate. For an extra control, stop/detector mix is added to buffer (no enzyme) and substrate or to just buffer (no substrate).
The recommended reaction has 0.06 μL per 20 μL (0.015 μg/20 μL) or 0.01125 μg/15 μL or 0.75 μg/mL.
Plates are read on machines with filters for Tamra. The units are mP with no enzyme controls reading app 190-220 mP units. Fully active enzyme reduces fluorescence polarization down to 70-100 mP after 30 minutes. An active cpd raises the mP values halfway to control or to 120-150 mP units.

SMILES | IC50 ([1]; Table 2) [µg/mL] | IC50 ([2]; Table 2) [µg/mL] | IC50 (Human TOR; Table 2) [nM] | IC50 ([3]; Table 2) [µg/mL] | IC50 ([4]; Table 2) [µg/mL] | IC50 ([5]; Table 2) [µg/mL] | IC50 (PI3K) [nM] | IC50 ([1]; Table 1) [µg/mL] | IC50 ([2]; Table 1) [µg/mL] | IC50 (Human TOR; Table 1) [nM] | IC50 ([3]; Table 1) [µg/mL] | IC50 ([4]; Table 1) [µg/mL] | IC50 ([5]; Table 1) [µg/mL]
COCC1OC(=O)C(=CN(Cc2ccccc2)CC23CCCN(CCC2)C3)C2=C(O)C(=O)C3=C(C(OC(C)=O)CC4(C)C(O)CCC34)C21C (stereo not shown) [Compound 29, Acetic acid 4-{[(1-aza-bicyclo[3.3.1]non-5-ylmethyl)-benzyl-amino]-methylene}-6,17-dihydroxy-1-methoxymethyl-10,13-dimethyl-3,7-dioxo-1,3,4,7,10,11,12,13,14,15,16,17-dodecahydro-2-oxa-cyclopenta[a]phenanthren-11-yl ester] | > 0.1 | 15 (≈ 22.2 µM) | > 14800 | 1.8 (≈ 2.67 µM) | 30 (≈ 44.5 µM) | > 30 | 373 | – | – | – | – | – | –
CCN(C=C1C(=O)OC(COC)C2(C)C3=C(C(=O)C(O)=C12)C1CCC(O)C1(C)CC3)CCN(C)C (stereo not shown) [Compound 45, 4-{[(2-Dimethylamino-ethyl)-ethyl-amino]-methylene}-6,17-dihydroxy-1-methoxymethyl-10,13-dimethyl-10,11,12,13,14,15,16,17-octahydro-1H,4H-2-oxa-cyclopenta[a]phenanthrene-3,7-dione] | 0.1 (≈ 0.205 µM) | 5 (≈ 10.2 µM) | > 20500 | 0.65 (≈ 1.33 µM) | – | – | 369 | – | – | – | – | – | –
CCN(C=C1C(=O)OC(COC)C2(C)C1=C(O)C(=O)C1=C2C(OC(C)=O)CC2(C)C(O)CCC12)CCN(C)C (stereo not shown) [Compound 46, Acetic acid 4-{[(2-dimethylamino-ethyl)-ethyl-amino]-methylene}-6,17-dihydroxy-1-methoxymethyl-10,13-dimethyl-3,7-dioxo-1,3,4,7,10,11,12,13,14,15,16,17-dodecahydro-2-oxa-cyclopenta[a]phenanthren-11-yl ester] | 0.02 (≈ 0.0366 µM) | 3.3 (≈ 6.04 µM) | 878 | 0.65 (≈ 1.19 µM) | – | – | 5.1 | – | – | – | – | – | –
COCC1OC(=O)C(=CN2CCOCC2)C2=C(O)C(=O)C3=C(C(OC(C)=O)CC4(C)C(O)CCC34)C21C (stereo not shown) [Compound 48, Acetic acid 6,17-dihydroxy-1-methoxymethyl-10,13-dimethyl-4-morpholin-4-ylmethylene-3,7-dioxo-1,3,4,7,10,11,12,13,14,15,16,17-dodecahydro-2-oxa-cyclopenta[a]phenanthren-11-yl ester] | 0.02 (≈ 0.0386 µM) | 3 (≈ 5.8 µM) | 831 | 0.5 (≈ 0.966 µM) | – | – | 36.1 | – | – | – | – | – | –
CCCCN(C)/C=C1/C(=O)O[C@H](COC)[C@@]2(C)C1=C(O)C(=O)C1=C2[C@H](OC(C)=O)C[C@@]2(C)C1CC[C@@H]2O (stereo partly drawn) [Compound 8, (1E,4S,4aR,5R,6aS,7S)-1-{[butyl(methyl)amino]methylene}-7,11-dihydroxy-4-(methoxymethyl)-4a,6a-dimethyl-2,10-dioxo-1,2,4,4a,5,6,6a,7,8,9,9a,10-dodecahydroindeno[4,5-h]isochromen-5-yl acetate] | – | 0.9 | 9080 | 0.12 | 1.3 | 3.1 | – | 0.1 | 0.6 | 8310 | 0.09 | 2 | 5
COC[C@H]1OC(=O)/C(=C/N2CCC(c3ccccc3)CC2)C2=C(O)C(=O)C3=C([C@H](OC(C)=O)C[C@@]4(C)C3CC[C@@H]4O)[C@]21C (stereo partly drawn) [Compound 15, (1E,4S,4aR,5R,6aS,7S)-7,11-dihydroxy-4-(methoxymethyl)-4a,6a-dimethyl-2,10-dioxo-1-[(4-phenylpiperidin-1-yl)methylene]-1,2,4,4a,5,6,6a,7,8,9,9a,10-dodecahydroindeno[4,5-h]isochromen-5-yl acetate] | – | – | – | – | – | – | – | 0.02 | 2.3 | 2450 | 0.9 | 15 | > 15
CCN(/C=C1/C(=O)O[C@H](COC)[C@@]2(C)C1=C(O)C(=O)C1=C2[C@H](O)C[C@]2(C)[C@@H](O)CC[C@@H]12)CC [Compound 50, (1E,4S,4aR,5R,6aS,7S,9aR)-1-[(diethylamino)methylene]-5,7,11-trihydroxy-4-(methoxymethyl)-4a,6a-dimethyl-4a,5,6,6a,7,8,9,9a-octahydroindeno[4,5-h]isochromene-2,10(1H,4H)-dione] | > 0.1 | 2.5 (≈ 5.42 µM) | – | 0.25 (≈ 0.542 µM) | – | – | 7580 | – | – | – | – | – | –

More lines, now with the values ahead:

IC50 ([1]; Table 2) [µg/mL] | IC50 ([2]; Table 2) [µg/mL] | IC50 (Human TOR; Table 2) [nM] | IC50 ([3]; Table 2) [µg/mL] | IC50 ([4]; Table 2) [µg/mL] | IC50 ([5]; Table 2) [µg/mL] | IC50 (PI3K) [nM] | IC50 ([1]; Table 1) [µg/mL] | IC50 ([2]; Table 1) [µg/mL] | IC50 (Human TOR; Table 1) [nM] | IC50 ([3]; Table 1) [µg/mL] | IC50 ([4]; Table 1) [µg/mL] | IC50 ([5]; Table 1) [µg/mL] | SMILES
0.05 (≈ 0.0835 µM) | 5.8 (≈ 9.69 µM) | 568 | 0.9 (≈ 1.5 µM) | – | – | 63.3 | – | – | – | – | – | – | COCC1OC(=O)C(=CN2CCC(N3CCCCC3)CC2)C2=C(O)C(=O)C3=C(C(OC(C)=O)CC4(C)C(O)CCC34)C21C (stereo not shown) [Compound 47, Acetic acid 4-[1,4′]bipiperidinyl-1′-ylmethylene-6,17-dihydroxy-1-methoxymethyl-10,13-dimethyl-3,7-dioxo-1,3,4,7,10,11,12,13,14,15,16,17-dodecahydro-2-oxa-cyclopenta[a]phenanthren-11-yl ester]
0.02 (≈ 0.0378 µM) | 3 (≈ 5.66 µM) | 1110 | 0.37 (≈ 0.699 µM) | – | – | 60.2 | – | – | – | – | – | – | COCC1OC(=O)C(=CN2CCC(=O)CC2)C2=C(O)C(=O)C3=C(C(OC(C)=O)CC4(C)C(O)CCC34)C21C (stereo not shown) [Compound 44, Acetic acid 6,17-dihydroxy-1-methoxymethyl-10,13-dimethyl-3,7-dioxo-4-(4-oxo-piperidin-1-ylmethylene)-1,3,4,7,10,11,12,13,14,15,16,17-dodecahydro-2-oxa-cyclopenta[a]phenanthren-11-yl ester]
– | – | – | – | – | – | – | 0.02 | 2 | 829 | 0.58 | 15 | > 15 | COC[C@H]1OC(=O)/C(=C/N2CCN(C)CC2)C2=C(O)C(=O)C3=C([C@H](OC(C)=O)C[C@@]4(C)C3CC[C@@H]4O)[C@]21C (stereo partly drawn) [Compound 14, (1E,4S,4aR,5R,6aS,7S)-7,11-dihydroxy-4-(methoxymethyl)-4a,6a-dimethyl-1-[(4-methylpiperazin-1-yl)methylene]-2,10-dioxo-1,2,4,4a,5,6,6a,7,8,9,9a,10-dodecahydroindeno[4,5-h]isochromen-5-yl acetate]
– | – | – | – | – | – | – | 0.02 | 1.8 | 890 | 1 | 15 | > 15 | COC[C@H]1OC(=O)/C(=C/N2CCN(Cc3ccccc3)CC2)C2=C(O)C(=O)C3=C([C@H](OC(C)=O)C[C@@]4(C)C3CC[C@@H]4O)[C@]21C (stereo partly drawn) [Compound 10, (1E,4S,4aR,5R,6aS,7S)-1-[(4-benzylpiperazin-1-yl)methylene]-7,11-dihydroxy-4-(methoxymethyl)-4a,6a-dimethyl-2,10-dioxo-1,2,4,4a,5,6,6a,7,8,9,9a,10-dodecahydroindeno[4,5-h]isochromen-5-yl acetate]
– | 3.5 | 776 | 0.33 | 17 | 13 | – | 0.05 | 2 | 607 | 0.8 | 15 | > 15 | COC[C@H]1OC(=O)/C(=C/N2CCN(c3ccccc3)CC2)C2=C(O)C(=O)C3=C([C@H](OC(C)=O)C[C@@]4(C)C3CC[C@@H]4O)[C@]21C (stereo partly drawn) [Compound 13, (1E,4S,4aR,5R,6aS,7S)-7,11-dihydroxy-4-(methoxymethyl)-4a,6a-dimethyl-2,10-dioxo-1-[(4-phenylpiperazin-1-yl)methylene]-1,2,4,4a,5,6,6a,7,8,9,9a,10-dodecahydroindeno[4,5-h]isochromen-5-yl acetate]
